# Source: patent US20150185215A1, “Cell-Based Assays For Post-Translational Enzyme Activity” (Cell Assay Innovations, Inc., priority 2012, published 2015)
# Target: lck (Homo sapiens, UniProt P06239)
# Assay: cell-based
# Chain of lck (P06239 whole entry): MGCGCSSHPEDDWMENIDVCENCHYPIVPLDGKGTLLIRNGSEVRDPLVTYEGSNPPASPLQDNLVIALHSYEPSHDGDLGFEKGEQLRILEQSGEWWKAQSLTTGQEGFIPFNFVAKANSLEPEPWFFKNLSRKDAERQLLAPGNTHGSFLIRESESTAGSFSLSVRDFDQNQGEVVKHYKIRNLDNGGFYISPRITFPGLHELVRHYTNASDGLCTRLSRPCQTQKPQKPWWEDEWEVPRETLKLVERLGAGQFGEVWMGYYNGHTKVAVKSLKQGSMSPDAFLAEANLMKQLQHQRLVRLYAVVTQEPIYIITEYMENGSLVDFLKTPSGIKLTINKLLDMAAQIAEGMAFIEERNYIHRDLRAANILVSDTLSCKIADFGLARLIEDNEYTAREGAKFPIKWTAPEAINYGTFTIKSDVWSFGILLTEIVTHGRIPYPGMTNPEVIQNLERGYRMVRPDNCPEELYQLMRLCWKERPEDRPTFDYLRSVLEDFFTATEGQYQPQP
compound,measurement,value
N#CC(=C(/N)Sc1ccccc1N)/C(C#N)=C(\N)Sc1ccccc1N [U0126],IC50,> 30 µM
